Reference: PMC11167047 (Cell Death Discovery, 2024)

Experiments:
Assay in all cases: kinome screen (33PanQinase)
Type in all cases: biochemical
[1] = molecular target: T1, ROCK2 (Homo sapiens, UniProt O75116)
T1 construct: purchased Reaction Biology Europe GmbH (formerly ProQinase)
Protocol: (§1) The Kinome Screening was performed by Reaction Biology Europe GmbH (http://reactionbiology.com; Freiburg i. Br., Germany).

[2] = molecular target: T2, ACVR1B (Homo sapiens, UniProt P36896)
T2 construct: purchased Reaction Biology Europe GmbH (formerly ProQinase)
T2 sequence (P36896 24-505): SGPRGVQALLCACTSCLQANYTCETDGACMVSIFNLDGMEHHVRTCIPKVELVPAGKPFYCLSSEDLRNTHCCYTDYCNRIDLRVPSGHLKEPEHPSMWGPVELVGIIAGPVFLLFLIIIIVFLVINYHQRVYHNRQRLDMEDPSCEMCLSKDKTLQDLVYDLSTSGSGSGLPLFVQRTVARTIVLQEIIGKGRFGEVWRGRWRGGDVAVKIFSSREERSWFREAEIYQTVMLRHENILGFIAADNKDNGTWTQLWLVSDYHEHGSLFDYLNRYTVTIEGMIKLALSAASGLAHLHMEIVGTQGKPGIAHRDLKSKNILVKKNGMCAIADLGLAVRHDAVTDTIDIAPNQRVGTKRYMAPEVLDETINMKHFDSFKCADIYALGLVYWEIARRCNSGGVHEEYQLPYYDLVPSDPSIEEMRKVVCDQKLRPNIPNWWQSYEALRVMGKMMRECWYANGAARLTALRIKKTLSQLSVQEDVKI
Protocol: as §1

[3] = molecular target: T3, WEE1 (Homo sapiens, UniProt P30291)
T3 construct: purchased Reaction Biology Europe GmbH (formerly ProQinase)
Protocol: as §1

[4] = molecular target: T4, PHKG2 (Homo sapiens, UniProt P15735)
T4 construct: purchased Reaction Biology Europe GmbH (formerly ProQinase)
T4 sequence (P15735 1-406): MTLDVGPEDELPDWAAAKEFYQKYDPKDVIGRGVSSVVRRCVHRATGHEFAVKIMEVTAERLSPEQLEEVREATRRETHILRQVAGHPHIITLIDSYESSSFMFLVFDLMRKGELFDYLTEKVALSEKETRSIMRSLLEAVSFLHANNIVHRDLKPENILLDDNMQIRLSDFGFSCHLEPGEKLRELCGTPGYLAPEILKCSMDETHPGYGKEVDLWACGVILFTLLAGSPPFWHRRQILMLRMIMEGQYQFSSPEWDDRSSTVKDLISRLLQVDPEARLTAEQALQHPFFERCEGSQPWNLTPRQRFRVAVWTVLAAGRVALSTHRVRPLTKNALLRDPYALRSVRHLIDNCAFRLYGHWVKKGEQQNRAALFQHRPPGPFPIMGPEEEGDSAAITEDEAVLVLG
Protocol: as §1

[5] = molecular target: T5, CDK12/CycK (Homo sapiens, UniProt Q9NYV4)
T5 construct: purchased Reaction Biology Europe GmbH (formerly ProQinase)
Protocol: as §1

[6] = molecular target: T6, TSSK1 (Homo sapiens, UniProt Q9BXA7)
T6 construct: purchased Reaction Biology Europe GmbH (formerly ProQinase)
T6 sequence (Q9BXA7 1-367): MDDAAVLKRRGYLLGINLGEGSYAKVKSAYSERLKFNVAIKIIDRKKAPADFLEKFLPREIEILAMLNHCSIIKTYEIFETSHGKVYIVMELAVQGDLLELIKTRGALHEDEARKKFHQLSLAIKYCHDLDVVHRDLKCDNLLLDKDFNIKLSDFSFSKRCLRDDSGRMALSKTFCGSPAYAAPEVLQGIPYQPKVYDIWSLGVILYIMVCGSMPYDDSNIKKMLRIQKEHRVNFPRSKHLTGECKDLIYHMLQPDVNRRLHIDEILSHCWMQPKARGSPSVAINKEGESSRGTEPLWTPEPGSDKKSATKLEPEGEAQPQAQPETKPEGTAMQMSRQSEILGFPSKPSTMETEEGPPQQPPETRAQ
Protocol: as §1

[7] = molecular target: T7, JAK3 (Homo sapiens, UniProt P52333)
T7 construct: purchased Reaction Biology Europe GmbH (formerly ProQinase)
T7 sequence (P52333 1-1124): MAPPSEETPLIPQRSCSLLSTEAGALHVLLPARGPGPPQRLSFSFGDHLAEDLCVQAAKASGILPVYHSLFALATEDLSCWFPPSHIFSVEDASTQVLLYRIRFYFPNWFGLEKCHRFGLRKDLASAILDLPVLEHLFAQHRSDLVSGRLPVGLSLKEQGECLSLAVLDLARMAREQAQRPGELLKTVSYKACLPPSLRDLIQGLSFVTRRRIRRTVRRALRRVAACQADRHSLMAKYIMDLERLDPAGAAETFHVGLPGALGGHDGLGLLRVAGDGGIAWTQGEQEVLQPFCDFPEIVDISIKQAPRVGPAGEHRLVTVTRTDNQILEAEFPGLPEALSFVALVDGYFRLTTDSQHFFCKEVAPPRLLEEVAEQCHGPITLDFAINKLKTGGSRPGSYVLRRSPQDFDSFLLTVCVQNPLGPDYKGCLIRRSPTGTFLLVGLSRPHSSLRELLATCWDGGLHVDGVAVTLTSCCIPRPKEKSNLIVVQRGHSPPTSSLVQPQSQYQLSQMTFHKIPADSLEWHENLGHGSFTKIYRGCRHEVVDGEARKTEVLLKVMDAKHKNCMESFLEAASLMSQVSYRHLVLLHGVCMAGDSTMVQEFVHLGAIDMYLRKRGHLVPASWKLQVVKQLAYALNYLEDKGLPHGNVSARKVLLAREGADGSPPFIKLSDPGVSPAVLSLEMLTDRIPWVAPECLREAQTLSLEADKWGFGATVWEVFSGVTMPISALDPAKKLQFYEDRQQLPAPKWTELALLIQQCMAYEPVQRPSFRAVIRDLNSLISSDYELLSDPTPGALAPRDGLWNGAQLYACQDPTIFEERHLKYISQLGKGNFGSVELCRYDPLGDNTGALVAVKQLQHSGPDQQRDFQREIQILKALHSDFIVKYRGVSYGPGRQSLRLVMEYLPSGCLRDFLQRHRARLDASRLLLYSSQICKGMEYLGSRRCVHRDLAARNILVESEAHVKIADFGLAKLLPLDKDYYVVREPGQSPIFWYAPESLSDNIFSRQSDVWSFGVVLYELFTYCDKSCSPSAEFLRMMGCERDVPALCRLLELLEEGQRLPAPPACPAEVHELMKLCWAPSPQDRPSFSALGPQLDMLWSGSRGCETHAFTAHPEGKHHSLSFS
Protocol: as §1

[8] = molecular target: T8, ACK1 (Homo sapiens, UniProt Q07912)
T8 construct: purchased Reaction Biology Europe GmbH (formerly ProQinase)
Protocol: as §1

T3 sequence (P30291 whole entry): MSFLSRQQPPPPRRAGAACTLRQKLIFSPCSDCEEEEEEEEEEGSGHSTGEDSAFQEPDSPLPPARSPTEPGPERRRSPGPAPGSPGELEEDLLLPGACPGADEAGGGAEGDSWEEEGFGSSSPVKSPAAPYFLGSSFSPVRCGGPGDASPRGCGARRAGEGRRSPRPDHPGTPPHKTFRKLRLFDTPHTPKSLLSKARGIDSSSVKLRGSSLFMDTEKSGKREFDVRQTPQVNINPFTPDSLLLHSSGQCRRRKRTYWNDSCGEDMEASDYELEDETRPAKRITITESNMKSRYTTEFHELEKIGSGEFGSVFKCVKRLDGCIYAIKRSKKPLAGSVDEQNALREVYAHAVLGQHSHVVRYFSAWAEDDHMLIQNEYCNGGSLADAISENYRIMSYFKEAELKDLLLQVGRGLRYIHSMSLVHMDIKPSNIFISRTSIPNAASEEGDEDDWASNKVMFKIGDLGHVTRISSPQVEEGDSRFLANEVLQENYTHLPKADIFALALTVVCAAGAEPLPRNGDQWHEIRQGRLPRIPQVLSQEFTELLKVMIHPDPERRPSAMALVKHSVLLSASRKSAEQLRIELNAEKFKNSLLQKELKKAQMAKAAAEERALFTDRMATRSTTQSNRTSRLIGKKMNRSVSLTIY
T5 sequence (Q9NYV4 whole entry): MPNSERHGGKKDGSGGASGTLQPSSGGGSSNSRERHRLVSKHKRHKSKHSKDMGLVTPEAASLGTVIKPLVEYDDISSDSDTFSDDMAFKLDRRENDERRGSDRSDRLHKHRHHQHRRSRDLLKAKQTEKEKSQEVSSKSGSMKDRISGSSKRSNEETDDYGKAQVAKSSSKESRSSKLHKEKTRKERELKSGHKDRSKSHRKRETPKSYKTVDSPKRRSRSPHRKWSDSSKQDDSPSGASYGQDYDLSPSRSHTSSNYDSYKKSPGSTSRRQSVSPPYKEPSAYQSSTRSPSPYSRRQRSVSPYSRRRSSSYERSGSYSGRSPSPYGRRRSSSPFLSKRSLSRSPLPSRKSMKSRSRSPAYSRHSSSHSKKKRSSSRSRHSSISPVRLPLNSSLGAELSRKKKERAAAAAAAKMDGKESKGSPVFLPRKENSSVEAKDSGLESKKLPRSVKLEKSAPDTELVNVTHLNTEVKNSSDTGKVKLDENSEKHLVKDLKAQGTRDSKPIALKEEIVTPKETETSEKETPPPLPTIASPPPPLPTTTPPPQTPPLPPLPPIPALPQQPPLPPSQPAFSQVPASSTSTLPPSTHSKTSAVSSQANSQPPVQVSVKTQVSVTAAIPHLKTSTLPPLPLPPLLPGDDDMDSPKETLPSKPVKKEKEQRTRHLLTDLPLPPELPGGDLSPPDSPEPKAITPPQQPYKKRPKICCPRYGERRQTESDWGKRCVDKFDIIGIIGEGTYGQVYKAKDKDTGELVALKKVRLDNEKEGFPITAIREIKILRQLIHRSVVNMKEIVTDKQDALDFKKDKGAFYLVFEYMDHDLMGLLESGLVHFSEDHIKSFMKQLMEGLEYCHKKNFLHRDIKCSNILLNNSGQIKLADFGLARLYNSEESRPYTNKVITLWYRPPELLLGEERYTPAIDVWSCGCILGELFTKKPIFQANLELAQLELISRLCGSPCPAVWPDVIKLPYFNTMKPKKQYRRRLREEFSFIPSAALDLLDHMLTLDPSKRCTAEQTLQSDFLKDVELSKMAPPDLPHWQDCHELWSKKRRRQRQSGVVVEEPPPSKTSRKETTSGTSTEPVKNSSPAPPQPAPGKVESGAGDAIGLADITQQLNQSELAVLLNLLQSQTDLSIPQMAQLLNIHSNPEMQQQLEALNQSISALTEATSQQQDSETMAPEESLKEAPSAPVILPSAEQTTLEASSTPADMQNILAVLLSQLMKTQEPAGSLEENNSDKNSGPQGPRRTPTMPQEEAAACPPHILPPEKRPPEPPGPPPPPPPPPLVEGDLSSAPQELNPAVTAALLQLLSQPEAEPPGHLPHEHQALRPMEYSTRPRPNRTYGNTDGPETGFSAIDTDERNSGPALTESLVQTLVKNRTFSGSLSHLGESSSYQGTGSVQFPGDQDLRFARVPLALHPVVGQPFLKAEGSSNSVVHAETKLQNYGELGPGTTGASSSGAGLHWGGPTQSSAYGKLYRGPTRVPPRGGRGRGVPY
T5 sequence (O75909 whole entry partner): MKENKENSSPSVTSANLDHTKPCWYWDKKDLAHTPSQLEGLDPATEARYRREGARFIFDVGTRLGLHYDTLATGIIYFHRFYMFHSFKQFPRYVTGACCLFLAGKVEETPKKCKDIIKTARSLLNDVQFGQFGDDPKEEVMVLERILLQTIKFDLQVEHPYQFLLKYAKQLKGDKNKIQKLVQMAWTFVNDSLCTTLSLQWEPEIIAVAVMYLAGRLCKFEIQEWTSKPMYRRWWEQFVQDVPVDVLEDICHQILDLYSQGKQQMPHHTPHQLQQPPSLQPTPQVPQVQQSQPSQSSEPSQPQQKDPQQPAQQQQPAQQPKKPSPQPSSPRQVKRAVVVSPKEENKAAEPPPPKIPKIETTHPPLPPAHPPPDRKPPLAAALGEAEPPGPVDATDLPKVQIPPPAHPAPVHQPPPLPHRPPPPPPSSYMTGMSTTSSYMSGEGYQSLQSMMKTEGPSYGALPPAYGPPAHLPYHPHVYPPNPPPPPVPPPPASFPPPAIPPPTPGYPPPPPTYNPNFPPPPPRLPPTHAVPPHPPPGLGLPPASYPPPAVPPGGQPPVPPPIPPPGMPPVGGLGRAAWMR
T1 sequence (O75116 whole entry): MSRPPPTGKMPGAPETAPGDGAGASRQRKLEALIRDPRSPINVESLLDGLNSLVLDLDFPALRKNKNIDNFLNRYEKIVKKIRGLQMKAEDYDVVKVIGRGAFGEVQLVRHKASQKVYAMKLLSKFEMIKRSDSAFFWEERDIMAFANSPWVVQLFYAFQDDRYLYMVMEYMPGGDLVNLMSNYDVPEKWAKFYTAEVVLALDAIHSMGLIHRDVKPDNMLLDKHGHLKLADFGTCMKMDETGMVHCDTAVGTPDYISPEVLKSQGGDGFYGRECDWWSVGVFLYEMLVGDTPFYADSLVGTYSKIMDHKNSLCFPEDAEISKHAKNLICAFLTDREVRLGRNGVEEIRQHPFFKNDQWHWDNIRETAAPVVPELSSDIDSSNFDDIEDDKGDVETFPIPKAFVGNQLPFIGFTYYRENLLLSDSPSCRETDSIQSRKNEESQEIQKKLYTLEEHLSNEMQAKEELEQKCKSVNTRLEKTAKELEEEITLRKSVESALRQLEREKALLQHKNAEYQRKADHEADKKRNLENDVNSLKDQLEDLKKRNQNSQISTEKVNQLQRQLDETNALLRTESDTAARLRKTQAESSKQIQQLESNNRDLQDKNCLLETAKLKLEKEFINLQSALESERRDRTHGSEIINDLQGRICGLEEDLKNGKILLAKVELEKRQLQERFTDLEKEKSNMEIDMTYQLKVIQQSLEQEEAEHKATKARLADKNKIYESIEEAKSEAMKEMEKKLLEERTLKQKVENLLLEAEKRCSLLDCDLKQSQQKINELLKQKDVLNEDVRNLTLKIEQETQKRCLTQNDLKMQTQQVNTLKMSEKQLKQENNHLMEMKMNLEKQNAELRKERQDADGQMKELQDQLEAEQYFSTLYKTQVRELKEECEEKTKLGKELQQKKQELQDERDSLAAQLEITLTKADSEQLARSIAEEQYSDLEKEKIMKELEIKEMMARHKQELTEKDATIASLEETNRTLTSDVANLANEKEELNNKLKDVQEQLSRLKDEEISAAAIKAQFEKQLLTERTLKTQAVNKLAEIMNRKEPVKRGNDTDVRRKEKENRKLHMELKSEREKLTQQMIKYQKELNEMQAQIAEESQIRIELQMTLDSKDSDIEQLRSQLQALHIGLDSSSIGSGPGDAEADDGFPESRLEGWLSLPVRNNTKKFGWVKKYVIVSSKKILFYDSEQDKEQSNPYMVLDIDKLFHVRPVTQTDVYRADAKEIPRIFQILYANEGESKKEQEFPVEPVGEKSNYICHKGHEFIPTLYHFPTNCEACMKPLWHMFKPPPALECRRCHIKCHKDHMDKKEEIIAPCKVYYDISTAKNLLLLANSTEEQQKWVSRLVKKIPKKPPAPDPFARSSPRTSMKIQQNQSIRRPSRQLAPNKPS

Compound	residual kinase activity ([1]; 0.3 µM)	residual kinase activity ([2]; 0.3 µM)	residual kinase activity ([3]; 0.3 µM)	residual kinase activity ([4]; 0.3 µM)	residual kinase activity ([5]; 0.3 µM)	residual kinase activity ([6]; 0.3 µM)	residual kinase activity ([7]; 0.3 µM)	residual kinase activity ([8]; 0.3 µM)	also measured
COc1ccnc2[nH]cc(-c3cc(N)nc(N)c3)c12 [meriolin 16]	1 % of control	69 % of control	99 % of control	52 % of control	1 % of control	83 % of control	15 % of control	72 % of control	residual kinase activity ([1]; 0.03 µM): 12 % of control; residual kinase activity ([2]; 0.03 µM): 75 % of control; residual kinase activity ([3]; 0.03 µM): 80 % of control; residual kinase activity ([4]; 0.03 µM): 74 % of control; residual kinase activity ([5]; 0.03 µM): 21 % of control; residual kinase activity ([6]; 0.03 µM): 109 % of control; residual kinase activity ([7]; 0.03 µM): 58 % of control; residual kinase activity ([8]; 0.03 µM): 83 % of control
c1ccc(CNc2cc(-c3c[nH]c4ncccc34)ccn2)cc1 [meriolin 36]	1 % of control	43 % of control	72 % of control	52 % of control	1 % of control	50 % of control	5 % of control	59 % of control	residual kinase activity ([1]; 3 µM): 0 % of control; residual kinase activity ([2]; 3 µM): 10 % of control; residual kinase activity ([3]; 3 µM): 37 % of control; residual kinase activity ([4]; 3 µM): 23 % of control; residual kinase activity ([5]; 3 µM): 2 % of control; residual kinase activity ([6]; 3 µM): 15 % of control; residual kinase activity ([7]; 3 µM): -1 % of control; residual kinase activity ([8]; 3 µM): 15 % of control
